Where “and” joins values, the source holds several entries; their conditions need not be identical. Equal entries are not always repeated.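 Where inhibition never reached the appropriate level, the endpoint shown equals the highest concentration tested. Otherwise, values were interpolated linearly from a five-concentration, 48-hour dose response in 96-well plates. GI50 = concentration required for 50% inhibition of growth. TGI: total growth inhibition.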
Columns and labels:
Assay in all cases: NCI-60 cell line screen, 48 h
HS 578T breast = test system: HS 578T breast
CAKI-1 renal = test system: CAKI-1 renal
SK-MEL-5 melanoma = test system: SK-MEL-5 melanoma
U251 CNS = test system: U251 CNS
SF-268 CNS = test system: SF-268 CNS
RPMI-8226 leukemia = test system: RPMI-8226 leukemia
HCC-2998 colon = test system: HCC-2998 colon
HT29 colon = test system: HT29 colon
MDA-MB-231 breast = test system: MDA-MB-231 breast
HOP-62 NSCLC = test system: HOP-62 NSCLC

SMILES	GI50 (HS 578T breast)	TGI (HS 578T breast)	GI50 (CAKI-1 renal)	TGI (CAKI-1 renal)	GI50 (SK-MEL-5 melanoma)	TGI (SK-MEL-5 melanoma)	GI50 (U251 CNS)	TGI (U251 CNS)	GI50 (SF-268 CNS)	TGI (SF-268 CNS)	GI50 (RPMI-8226 leukemia)	TGI (RPMI-8226 leukemia)	GI50 (HCC-2998 colon)	TGI (HCC-2998 colon)	GI50 (HT29 colon)	TGI (HT29 colon)	GI50 (MDA-MB-231 breast)	TGI (MDA-MB-231 breast)	GI50 (HOP-62 NSCLC)	TGI (HOP-62 NSCLC)
CN1CCN(c2ccc3nc(-c4[nH]ncc4Nc4ncnc5c4OCCCN5)[nH]c3c2)CC1	< 0.01 µM	0.0302 µM	< 0.01 µM	0.0805 µM	0.0204 µM	0.0976 µM	< 0.01 µM	0.123 µM	< 0.0112 µM	0.049 µM	0.0418 µM	0.155 µM	0.0159 µM	0.0762 µM	< 0.0126 µM	0.1 µM	< 0.01 µM	0.0423 µM	0.0101 µM	0.062 µM
O=C(c1ccco1)c1nc2cc(C(F)(F)F)ccc2[n+]([O-])c1C(F)(F)F	51.9 µM	> 100 µM	> 100 µM	> 100 µM	33.3 µM	> 100 µM	37 µM	> 100 µM	52.4 µM	> 100 µM	20.3 µM	> 100 µM	> 100 µM	> 100 µM	33.6 µM	> 100 µM	68.8 µM	> 100 µM	71.7 µM	> 100 µM
Cc1ccc2nc3c(n2c1)C(=O)C(=O)c1ccccc1-3	0.213 µM	0.618 µM	1.28 µM	2.71 µM	0.112 µM	0.244 µM	0.176 µM	0.419 µM	0.4 µM	4.01 µM	0.18 µM	0.717 µM	0.707 µM	2.19 µM	1.74 µM	–	0.505 µM	3.07 µM	0.353 µM	0.961 µM
CC#CC#C/C=C1\C=CC2(OC=CC2OC(C)=O)O1 (centres undefined)	–	> 100 µM	–	31.2 µM	–	36.8 µM	–	43.1 µM and 33.2 µM	–	85.4 µM and 46.1 µM	–	> 100 µM	–	69.9 µM and 45.9 µM	–	34.8 µM and 55.9 µM	–	41.9 µM	–	> 100 µM
O=C(Cc1ccc(Nc2ccnc(C(F)(F)F)c2)cc1)Nc1cc(Cl)ccc1O	3.7 µM	26 µM	13.7 µM	43.7 µM	3.86 µM	14.7 µM	6.46 µM	23.6 µM	8.39 µM	31.5 µM	1.25 µM	4.1 µM	13.6 µM	28.4 µM	21.4 µM	53.5 µM	4.92 µM	24.2 µM	12.5 µM	32.5 µM
COc1cc(-c2nc(-c3ccc(-c4nc5ccc(F)cc5[nH]4)cc3)no2)cc(OC)c1OC	2.27 µM	7.36 µM	2.76 µM	9.13 µM	2.22 µM	10.2 µM	3.03 µM	28.8 µM	3.99 µM	32.4 µM	1.94 µM	5.35 µM	6.13 µM	40.4 µM	3.69 µM	17.7 µM	2.39 µM	7.66 µM	3.21 µM	9.15 µM
Fc1cccc(Cl)c1Cn1c(-c2c(F)cccc2Cl)nc2ccccc21	21.6 µM	65.3 µM	24 µM	47.5 µM	11.6 µM	29.8 µM	19.9 µM	47.1 µM	15 µM	32.6 µM	13.3 µM	60 µM	2.31 µM	9.87 µM	30 µM	> 100 µM	13.2 µM	29.3 µM	23.2 µM	50.6 µM
COc1ccc(-n2cc(-c3cc(OC)c(OC)c(OC)c3)[nH]c2=S)cc1Cl	17.5 µM	60 µM	4.86 µM	33.7 µM	27.2 µM	> 100 µM	20 µM	50.7 µM	18.3 µM	50.3 µM	5.14 µM	> 100 µM	39.7 µM	> 100 µM	> 100 µM	> 100 µM	7.7 µM	49.8 µM	22.1 µM	52.8 µM
CCOC(=O)c1ccccc1SC(C[N+](=O)[O-])c1ccccc1 (centres undefined)	12.6 µM	47.1 µM	14.8 µM	31.2 µM	5.09 µM	17.4 µM	12 µM	24.7 µM	6.06 µM	19.2 µM	2.44 µM	5.53 µM	1.86 µM	3.36 µM	2.55 µM	5.72 µM	9.1 µM	21.8 µM	16.9 µM	32.1 µM
